Results taken from patent US6492174B1, “Methods of initiating embryogenic cultures in plants” (Institute of Paper Science & Technology, priority 2000, dated 2002).

Tests used:
Type in all cases: cell-based
[1] = test system: Norway spruce zygotic embryos; assay: Norway spruce initiation on solid media #56 with ABA, brassinolide or elevated pressure, ten weeks; conditions: 1 ppm ABA added to medium #56
Procedure: Explants were zygotic embryos flipped out of the megagametophyte, prepared as in Example 1. The experiment consisted of five replications, with a replication consisting of ten explants in a single petri dish. Explants were cultured on solid media #56 (Table 3). Treatment #1 consisted of explants on media #56. In Treatment #2, the medium additionally contained 1 ppm ABA. In Treatment #3, the media contained […] brassinolide. In Treatment #4, the explants were cultured under 1.5 atmospheres of pressure. After ten weeks, the explants were examined and the frequency of embryogenic culture initiation was scored (Table 43).

[2] = test system: Douglas fir stage 3-5 zygotic embryos attached to megagametophytes; assay: Douglas fir initiation on solid media #121 with brassinolide, ABA, ABA pre-soak or elevated pressure
Excerpt: The explants used in this experiment were isolated from Douglas fir cones collected in mid-summer from four open-pollinated trees, representing a multiplicity of genotypes. Explants were stage 3-5 (early-midstage) zygotic embryos attached to megagametophytes, prepared as described in Example 2. The embryo and attached megagametophyte were then placed next to each other on the treatment media. As in Example 2, each replication consisted of ten explants in a single petri dish. Each treatment contained four replications per treatment, per genotype.
The treatment media were based on solid media #121, the composition of which is described in Table 5. Media #121 contains no ABA or brassinolide. Treatment #1, the control, consisted of explants cultured on media #121 alone. In Treatment #2, explants were cultured on media #121 containing 0.1 μM brassinolide. In Treatment #3, explants were cultured on media #121 containing 1 ppm ABA. In treatment #4, explants were soaked in liquid media containing 5 ppm ABA for 30 minutes prior to being placed on #121 media. In Treatment #5, explants were cultured on media #121 under 1.5 atmospheres of pressure. The petri dishes were wrapped in PARAFILM and incubated at 23-24° C. in the dark.

[3] = test system: Loblolly pine megagametophytes; assay: Elevated pressure in combination with brassinolide, ABA pre-soak or liquid media #1038, 8 weeks; conditions: Br 0.1 μM in media #1042, ABA soak 5 ppm 30 minute
Procedure: The previous examples indicate that elevated pressure can enhance extrusion and initiation. This experiment was designed to test the effect of elevated pressure in combination with other treatments to determine the optimal conditions for promoting extrusion and initiation.
Megagametophytes in some treatments received a 30 minute pre-culturing soak in liquid media (#1042 minus the gelling agent) containing 5 ppm ABA. Megagametophytes in Treatments 9 and 10 were fully immersed in liquid media #1038. The experiment consisted of three replications per treatment, per genotype.
Five different treatments were used, each cultured under 1.0 or 1.5 atmospheres for a total of ten treatments (See Table 33).
After 8 weeks culturing, the treatments were scored. Extrusion and initiation were increased by elevated pressure in all treatments.

[4] = test system: Loblolly pine megagametophytes; assay: 30 minute abscisic acid soaking pre-treatment, culture on solid media #1042 with or without 0.1 μM brassinolide, eight weeks
Procedure: In this experiment, the effects of ovule pre-treatment by soaking with abscisic acid solutions of varying concentration was investigated. The abscisic acid treatment was tested on two media, one containing brassinolide and one lacking in brassinolide. The explants were megagametophytes from open pollinated summer cones of four individual trees, representing a multiplicity of genotypes. The seeds contained Stage 2-4 zygotic embryos. Megagametophytes were excised from sterilized seeds, as described in Example 4.
Prior to culturing, the megagametophytes were soaked for 30 minutes in liquid growth media (media #1042, Table 47, minus the gelling agent) containing 0, 5, 10 and 20 ppm abscisic acid. After soaking, the megagametophytes were placed on either one of two solid growth media. While still liquid, 2 ml media was poured into wells on a culture well plate and allowed to solidify. Half the soaked megagametophytes were placed on solid media #1042 (Table 47) and half were placed on solid media #1042 with 0.1 μM brassinolide added.
On solid media where brassinolide was present, there was a dramatic difference in extrusion and initiation between megagametophytes soaked in zero and 5 ppm ABA solutions (Treatments #5 and #6) compared to those soaked in 10 and 20 ppm ABA solutions (Treatments #7 and #8). […] In contrast, megagametophytes treated with higher amounts of ABA in Treatments 7 and 8 had the highest initiation frequencies of any treatment. […] Alternatively, there may have been an interaction between brassinolide and ABA such that low ABA plus brassinolide inhibits extrusion, with this inhibition overcome when ABA concentration is higher.

[5] = genotype 7-100, + Pressure 1.5 atm
[6] = genotype 11-1095, + Pressure 1.5 atm
[7] = genotype 21-6, + Pressure 1.5 atm
[8] = genotype 7-1051, 5 ppm ABA/No Br
[9] = genotype 7-1051, 10 ppm ABA/No Br
[10] = genotype 7-1051, 20 ppm ABA/No Br
[11] = genotype M7-56, 5 ppm ABA/No Br
[12] = genotype M7-56, 10 ppm ABA/No Br
[13] = genotype M7-56, 20 ppm ABA/No Br
[14] = genotype TC5-1501, 5 ppm ABA/No Br
[15] = genotype TC5-1501, 10 ppm ABA/No Br
[16] = genotype TC5-1501, 20 ppm ABA/No Br
[17] = genotype TC11-109, 5 ppm ABA/No Br
[18] = genotype TC11-109, 10 ppm ABA/No Br
[19] = genotype TC11-109, 20 ppm ABA/No Br

## CC1=CC(=O)CC(C)(C)C1(O)/C=C/C(C)=C\C(=O)O (stereo not shown) [ABA, 5-(1-hydroxy-2,6,6,-trimethyl-4-oxo-2-cyclohexen-1-yl)-3-methyl-2,4-penta dienoic acid]
[1]
  % Initiating (std. error): 47.4 (5.5) %
[2]; genotype T0232l, +1 ppm ABA in media #121
  % of Megagametophytes Initiating - Mean: 21.1%
[2]; genotype T0232l, ABA pre-soak (5 ppm, 30 minutes)
  % of Megagametophytes Initiating - Mean: 27.6%
[2]; genotype T0235l, +1 ppm ABA in media #121
  % of Megagametophytes Initiating - Mean: 10.5%
[2]; genotype T0235l, ABA pre-soak (5 ppm, 30 minutes)
  % of Megagametophytes Initiating - Mean: 25.0%
[2]; genotype T0293l, +1 ppm ABA in media #121
  % of Megagametophytes Initiating - Mean: 34.6%
[2]; genotype T0293l, ABA pre-soak (5 ppm, 30 minutes)
  % of Megagametophytes Initiating - Mean: 26.9%
[2]; genotype T0525l, +1 ppm ABA in media #121
  % of Megagametophytes Initiating - Mean: 10.0%
[2]; genotype T0525l, ABA pre-soak (5 ppm, 30 minutes)
  % of Megagametophytes Initiating - Mean: 20.0%
[2]; total, +1 ppm ABA in media #121
  % of Megagametophytes Initiating - Mean: 19.1%
[2]; total, ABA pre-soak (5 ppm, 30 minutes)
  % of Megagametophytes Initiating - Mean: 24.6%
[3]; Total, 1.0 atm
  % Megagametophytes Extruding: 38.4%
  % Megagametophytes Initiating: 21.5%
[3]; Total, + Pressure 1.5 atm
  % Megagametophytes Extruding: 46.7%
  % Megagametophytes Initiating: 24.4%
[3]; genotype 7-100, 1.0 atm
  % Megagametophytes Extruding: 10.0 (5.8) %
  % Megagametophytes Initiating: 3.3 (3.3) %
[3]; [5]
  % Megagametophytes Extruding: 23.3 (13.3) %
  % Megagametophytes Initiating: 3.3 (3.3) %
[3]; genotype 11-1095, 1.0 atm
  % Megagametophytes Extruding: 50.0 (0.0) %
  % Megagametophytes Initiating: 23.3 (6.7) %
[3]; [6]
  % Megagametophytes Extruding: 50.0 (5.8) %
  % Megagametophytes Initiating: 20.0 (5.8) %
[3]; genotype 21-6, 1.0 atm
  % Megagametophytes Extruding: 55.2 (8.7) %
  % Megagametophytes Initiating: 37.8 (11.8) %
[3]; [7]
  % Megagametophytes Extruding: 66.7 (8.8) %
  % Megagametophytes Initiating: 50.0 (11.5) %
[4]; [8]
  % Megagametophytes Extruding: 53.3 (8.8) %
  Embryogenic Culture Initiation - % Megagametophytes Extruding: 20.0 (10.0) %
[4]; [9]
  % Megagametophytes Extruding: 30.0 (5.8) %
  Embryogenic Culture Initiation - % Megagametophytes Extruding: 6.7 (3.3) %
[4]; [10]
  % Megagametophytes Extruding: 40.0 (5.8) %
  Embryogenic Culture Initiation - % Megagametophytes Extruding: 13.3 (3.3) %
[4]; [11]
  % Megagametophytes Extruding: 20.0 (5.8) %
  Embryogenic Culture Initiation - % Megagametophytes Extruding: 13.3 (3.3) %
[4]; [12]
  % Megagametophytes Extruding: 26.7 (6.7) %
  Embryogenic Culture Initiation - % Megagametophytes Extruding: 13.3 (3.3) %
[4]; [13]
  % Megagametophytes Extruding: 36.7 (8.8) %
  Embryogenic Culture Initiation - % Megagametophytes Extruding: 6.7 (6.7) %
[4]; [14]
  % Megagametophytes Extruding: 33.3 (6.7) %
  Embryogenic Culture Initiation - % Megagametophytes Extruding: 10.0 (0.0) %
[4]; [15]
  % Megagametophytes Extruding: 16.7 (8.8) %
  Embryogenic Culture Initiation - % Megagametophytes Extruding: 3.3 (3.3) %
[4]; [16]
  % Megagametophytes Extruding: 40.0 (11.5) %
  Embryogenic Culture Initiation - % Megagametophytes Extruding: 6.7 (3.3) %
[4]; [17]
  % Megagametophytes Extruding: 33.3 (3.3) %
  Embryogenic Culture Initiation - % Megagametophytes Extruding: 10.0 (5.8) %
[4]; [18]
  % Megagametophytes Extruding: 46.7 (13.3) %
  Embryogenic Culture Initiation - % Megagametophytes Extruding: 13.3 (3.3) %
[4]; [19]
  % Megagametophytes Extruding: 46.7 (12.0) %
  Embryogenic Culture Initiation - % Megagametophytes Extruding: 13.3 (3.3) %
[4]; soaking pretreatment, media where no brassinolide was present (Treatments #1-4)
  promotion of extrusion or initiation: did not promote extrusion or initiation
[4]; total, 5 ppm ABA/No Br
  % Megagametophytes Extruding: 35.0%
  Embryogenic Culture Initiation - % Megagametophytes Extruding: 13.3%
[4]; total, 10 ppm ABA/No Br
  % Megagametophytes Extruding: 30.0%
  Embryogenic Culture Initiation - % Megagametophytes Extruding: 9.2%
[4]; total, 20 ppm ABA/No Br
  % Megagametophytes Extruding: 40.9%
  Embryogenic Culture Initiation - % Megagametophytes Extruding: 10.0%
